Experimental data reported in patent US9261498B2, “Biomarker for sensitivity to mTOR inhibitor therapy in kidney cancer” (The Regents of the University of California, priority 2005, dated 2016).
Entries after “also recorded” stand apart in the source; their conditions may differ.

Legend:
[1] = system: mTOR; test: Immunoblot of p-S6 and p-eIF4G in cell lysates (mTOR activity); format: cell-based, human
Method: (a) SN12C-CSCG and SN12C-VHLshRNA cell were treated with vehicle, 1 nM or 10 nM of CCI-779 and lysed 24 hours later. Lysates were subjected to immunoblotting for HIF-1α, HIF-2α, GLUT-1, CA-IX, p-eIF4G, p-S6 Ribosomal protein. Equal protein loading was verified using anti-β-actin antibody. (b) HIF-1α expression was probed by immunoblotting in SN12C-MSCV-5′TOP-HIF-1α cDNA (left panel) and SN12C-MSCV-HIF-1α cDNA (tight panel) post 24 hours of vehicle, 1 nM or 10 nM of CCI-779.
FIGS. 4A-4C. Rescue of CCI-779 growth suppression by HIF-1-α and HIF-2-α prolyl hydcroxylase mutants. […] Cell growth was measured by cell counts (n=3). […]
(§1) Cells and xenograft tumors were lysed in ECB lysis buffer (see, e.g. Kondo et al., Cancer Cell 1, 237-46 (2002)) or high-detergent buffer (2% SDS), (see, e.g. Chen et al., Nat Med 10, 33-9 (2004)), respectively, supplemented with complete protease and phosphatase inhibitor cocktails (Calbiochem). […] Bound antibody was detected using enhanced chemiluminescence (ECL, Amersham). For VEGF ELISA quantification, cells were plated in 6 well plates (1×10^5 per well). […] Thirty-six hours later, VEGF ELISA (R&D Systems) was performed according to the manufacturer's instructions, using a Fisher Plate reader. […]

[2] = system: mTOR; test: Immunoblot of S6 phosphorylation in xenograft tumors; format: in vivo, SCID mice; conditions: parental and knockdown xenografts, 0.1 mg/kg, day 5 of treatment
Method: FIGS. 1A-1E. Effects of VHL knockdown on sensitivity to CCI-779. (a) Immunoblotting of lysates derived from shRNA and control (empty vector, V) in SN12C, using antibodies against VHL (both isoforms detected), HIF-1α, HIF-2α, GLUT-1, CA-IX and β-Actin (as a loading control). (b) SN12C-CSCG and SN12C-VHLshRNA cells (1×10^5) were cultured in 10% serum rich media, in the presence of vehicle, 1 or 10 nM of CCI-779 for 5 days. Cell growth was measured by cell counts (n=3). […] (c) SN12C-CSCG (C1) and SN12C-CSCG shVHL RNA (C2) cells were injected into SCID mice at a dose of 1×10^6 cells per mouse (n=30). […] Phosphorylated-S6 protein in SN12C-CSCG and SN12C-VHL shRNA xenograft tumors treated with vehicle or 0.1 mg/kg of CCI-779 was measured by immunoblot C3 and C4). […]
as §1

CO[C@H]1C[C@@H]2CC[C@@H](C)[C@@](O)(O2)C(=O)C(=O)N2CCCC[C@H]2C(=O)O[C@H]([C@H](C)C[C@@H]2CC[C@@H](OC(=O)C(C)(CO)CO)[C@H](OC)C2)CC(=O)[C@H](C)/C=C(\C)[C@@H](O)[C@@H](OC)C(=O)[C@H](C)C[C@H](C)/C=C/C=C/C=C/1C [CCI-779]
phosphorylation of S6 and eIF4G ([1]; VHL knockdown cells expressing HIF-1α/HIF-2α mutants): decreased phosphorylation | phosphorylation of S6 and eIF4G ([1]; parental and VHL knockdown cells, 1 and 10 nM CCI-779): reduced phosphorylation; also recorded: reduction in phosphorylation | S6 phosphorylation in xenograft tumors [2]: decrease in S6 phosphorylation
